Key:
Experiment in all cases: relative viability (nuclei count vs DMSO), 5 days (fraction); higher = more cells survive
[1] = compound: CC1CC(=O)N(C2=CN=C(N=C2N1C3CCCC3)NC4=C(C=C(C=C4)C(=O)NC5CCN(CC5)C)OC)C [NPK76-II-72-1] + CC(=O)Nc1cccc(-n2c(=O)n(C3CC3)c(=O)c3c(Nc4ccc(I)cc4F)n(C)c(=O)c(C)c32)c1 [Trametinib] (partner 0.02 µM)
Method in brief: (§1)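 Lung cancer cell lines in 1536-well plates got either a single drug or a fixed anchor-drug dose together with five library-drug doses (not always all listed) in √10 steps, by pin tool, on the day after seeding. Nuclei were counted after 5 days, and relative viability is the treated-to-vehicle ratio of nuclei counts. Values are medians of duplicate plates.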

[2] = compound: CC1CC(=O)N(C2=CN=C(N=C2N1C3CCCC3)NC4=C(C=C(C=C4)C(=O)NC5CCN(CC5)C)OC)C [NPK76-II-72-1] + Cc1nc(Nc2ncc(C(=O)Nc3c(C)cccc3Cl)s2)cc(N2CCN(CCO)CC2)n1 [Dasatinib] (partner 0.075 µM)
Method in brief: as §1

BI-2536 + OSI-027 = compound: CC[C@@H]1C(=O)N(C)c2cnc(Nc3ccc(C(=O)NC4CCN(C)CC4)cc3OC)nc2N1C1CCCC1 [BI-2536] + COc1cccc2cc(-c3nc([C@H]4CC[C@H](C(=O)O)CC4)n4ncnc(N)c34)[nH]c12 [OSI-027] (partner 0.5 µM)
Method in brief: as §1

BI-2536 + Pictilisib = compound: CC[C@@H]1C(=O)N(C)c2cnc(Nc3ccc(C(=O)NC4CCN(C)CC4)cc3OC)nc2N1C1CCCC1 [BI-2536] + CS(=O)(=O)N1CCN(Cc2cc3nc(-c4cccc5[nH]ncc45)nc(N4CCOCC4)c3s2)CC1 [Pictilisib] (partner 1 µM)
Method in brief: as §1

Cell Line: UMC-11
- relative viability ([1]; first compound 0.01 µM): 0.692
- relative viability ([1]; first compound 0.03162 µM): 0.629
- relative viability ([1]; first compound 0.1 µM): 0.75
- relative viability ([1]; first compound 0.3162 µM): 0.484
- relative viability ([1]; first compound 1 µM): 0.812
- relative viability ([2]; first compound 0.01 µM): 0.45
- relative viability ([2]; first compound 0.03162 µM): 0.509
- relative viability ([2]; first compound 0.1 µM): 0.441
- relative viability ([2]; first compound 1 µM): 0.447
- relative viability (BI-2536 + OSI-027; first compound 0.01 µM): 0.5
- relative viability (BI-2536 + OSI-027; first compound 0.03162 µM): 0.27
- relative viability (BI-2536 + OSI-027; first compound 0.1 µM): 0.138
- relative viability (BI-2536 + OSI-027; first compound 0.3162 µM): 0.192
- relative viability (BI-2536 + OSI-027; first compound 1 µM): 0.158
- relative viability (BI-2536 + Pictilisib; first compound 0.01 µM): 0.851
- relative viability (BI-2536 + Pictilisib; first compound 0.03162 µM): 0.647
- relative viability (BI-2536 + Pictilisib; first compound 0.1 µM): 0.11
- relative viability (BI-2536 + Pictilisib; first compound 0.3162 µM): 0.153
- relative viability (BI-2536 + Pictilisib; first compound 1 µM): 0.14

— the supplement of paper PMC10307832
